Experimental data from US20170152245A1 (National Taiwan University, priority 2015, published 2017).

Test system: human platelet suspension
Experiment: U46619-induced platelet aggregation in human platelet suspension
Type: cell-based
Conditions: Homo sapiens, Platelet, U46619-induced aggregation, platelet suspension; read-out: P.S(U46619) IC50
Method: Human platelet suspension (PS) was prepared according to the method described previously. Briefly, blood sample, freshly obtained from healthy volunteers who had taken no medications during the preceding 2 weeks, was treated with acid citrate/dextrose (ACD) in a volume ratio of 9:1. After centrifugation at 120 g, 25° C. for 9 min, platelet-rich plasma was transferred into another plastic tube and incubated with heparin (6.4 U/ml) as well as prostaglandin E1 (1 μM). Platelets were spun down by centrifugation at 500 g, 25° C. for 8 min and subsequently washed two times with Tyrode solution (NaH2PO4 0.4 mM; NaCl 136.9 mM; KCl […]; NaHCO3 11.9 mM; CaCl2 2 mM; MgCl2 2.1 mM; glucose 11.1 mM; BSA 3.5 mg/ml; pH 7.35-7.4). The washed platelets were finally suspended in Tyrode's solution and the platelet count was adjusted to 3.75×10^8 platelets/ml. For platelet-rich plasma (PRP) preparation, whole blood was anticoagulated with 1/10 vol of sodium citrate (3.8%, w/v) and centrifuged at 150 g, 25° C. for 9 min.
Platelet aggregation was measured turbidimetrically with a Lumi-aggregometer (Payton Scientific) at 37° C. under stirring condition (900 rpm). Platelet suspensions were prewarmed to 37° C. for 2 min in a silicone-treated glass cuvette. Nstpbp5185 was added 3 min before the addition of platelet-aggregation inducers. The extent of platelet aggregation was determined by recording the increase of light transmission relative to that of control (maximal aggregation, as 100%) for 6 min after the addition of inducer. The final volume and platelet count for measuring platelet aggregation were 500 μl and 3×10^8/ml, respectively.

Structure (SMILES)	IC50 [µM]
Cc1ccc(-c2nc3ccccc3n2Cc2ccccc2F)o1 [Example 13, 1-(o-Fluorobenzyl)-2-(5-methyl-2-furyl)benzimidazole]	13.1
Cc1ccc(-c2nc3ccccc3n2Cc2ccncc2)o1 [Example 24, 1-(4-Picoyl)-2-(5-methyl-2-furyl)benzimidazole]	14.6
COc1ccc2[nH]c(-c3ccc(C)o3)nc2c1 [Example 25, 5-Methoxy-2-(5-methyl-2-furyl)benzimidazole]	44.5
COc1ccc2nc(-c3ccc(C)o3)n(Cc3cccc(C)c3)c2c1 [Example 27a, 6-methoxy-1-(3-methylbenzyl)-2-(5-methyl-2-furyl)benzimidazole]	19.2
COc1ccc2c(c1)nc(-c1ccc(C)o1)n2Cc1cccc(C)c1 [Example 27b, 5-methoxy-1-(3-methylbenzyl)-2-(5-methyl-2-furyl)benzimidazole]	26.9
Cc1ccc2[nH]c(-c3ccc(C)o3)nc2c1 [Example 29, 5-methyl-2-(5-methyl-2-furyl)benzimidazole]	33.7
Cc1ccc(-c2nc3cc(F)ccc3[nH]2)o1 [Example 30]	52.1
Cc1ccc(-c2nc3cc(F)ccc3n2Cc2ccccc2Cl)o1 [Example 31a, 5-fluoro-1-(2-chlorobenzyl)-2-(5-methyl-2-furyl)benzimidazole]	22.7
COc1ccc(Cn2c(-c3ccc(C)o3)nc3cc(F)ccc32)cc1 [Example 34a, 5-fluoro-1-(4-methoxybenzyl)-2-(5-methyl-2-furyl)benzimidazole]	34.5
COc1ccc(Cn2c(-c3ccc(C)o3)nc3ccc(F)cc32)cc1 [Example 34b, 6-fluoro-1-(4-methoxybenzyl)-2-(5-methyl-2-furyl)benzimidazole]	32.2
Cc1ccc(-c2nc3ccc(F)cc3n2Cc2cccc(F)c2)o1 [Example 37b, 6-fluoro-1-(3-fluorobenzyl)-2-(5-methyl-2-furyl)benzimidazole]	1.17
Cc1cccc(Cn2c(-c3ccc(C)o3)nc3cc(F)ccc32)c1 [Example 40a, 5-fluoro-1-(3-methylbenzyl)-2-(5-methyl-2-furyl)benzimidazole]	14.6
Cc1ccc(-c2nc3cc(Cl)ccc3[nH]2)o1 [Example 42]	37.3
Cc1ccc(-c2nc3ccc(Cl)cc3n2Cc2ccc(Cl)cc2)o1 [Example 43a, 6-chloro-1-(4-chlorobenzyl)-2-(5-methyl-2-furyl) benzimidazole]	36.5
Cc1ccc(-c2nc3cc(Cl)ccc3n2Cc2ccc(Cl)cc2)o1 [Example 43b, 5-chloro-1-(4-chlorobenzyl)-2-(5-methyl-2-furyl)benzimidazole]	127
Cc1ccc(-c2nc3cc(Cl)ccc3n2Cc2ccccc2Cl)o1 [Example 45a, 5-chloro-1-(2-chlorobenzyl)-2-(5-methyl-2-furyl)benzimidazole]	46.3

More lines, now with the values ahead:

IC50 [µM]	Structure (SMILES)
4.29	Cc1ccc(-c2nc3ccccc3n2Cc2ccccn2)o1 [Example 22, 1-(2-Picoyl)-2-(5-methyl-2-furyl)benzimidazole]
3.01	Cc1ccc(-c2nc3ccccc3n2Cc2cccnc2)o1 [Example 23, 1-(3-Picoyl)-2-(5-methyl-2-furyl)benzimidazole]
1.45	COc1ccc2nc(-c3ccc(C)o3)n(Cc3ccccc3)c2c1 [Example 25a, 1-benzyl-6-methoxy-2-(5-methyl-2-furyl)benzimidazole]
3.3	COc1ccc2c(c1)nc(-c1ccc(C)o1)n2Cc1ccccc1 [Example 25b, 1-benzyl-5-methoxy-2-(5-methyl-2-furyl)benzimidazole]
6.79	Cc1ccc(-c2nc3ccc(F)cc3n2Cc2ccccc2)o1 [Example 30a, 1-benzyl-6-fluoro-2-(5-methyl-2-furyl)benzimidazole]
12.7	Cc1ccc(-c2nc3ccc(F)cc3n2Cc2ccccc2Cl)o1 [Example 31b, 6-fluoro-1-(2-chlorobenzyl)-2-(5-methyl-2-furyl)benzimidazole]
4.26	Cc1ccc(-c2nc3cc(F)ccc3n2Cc2cccc(Cl)c2)o1 [Example 32a, 5-fluoro-1-(3-chlorobenzyl)-2-(5-methyl-2-furyl)benzimidazole]
3.09	Cc1ccc(-c2nc3ccc(F)cc3n2Cc2cccc(Cl)c2)o1 [Example 32b, 6-fluoro-1-(3-chlorobenzyl)-2-(5-methyl-2-furyl)benzimidazole]
1.7	Cc1ccc(-c2nc3cc(F)ccc3n2Cc2cccc(F)c2)o1 [Example 37a, 5-fluoro-1-(3-fluorobenzyl)-2-(5-methyl-2-furyl)benzimidazole]
4.14	Cc1ccc(-c2nc3cc(F)ccc3n2Cc2ccccc2F)o1 [Example 38a, 5-fluoro-1-(2-fluorobenzyl)-2-(5-methyl-2-furyl)benzimidazole]
2.7	Cc1ccc(-c2nc3ccc(F)cc3n2Cc2ccccc2F)o1 [Example 38b, 6-Fluoro-1-(2-fluorobenzyl)-2-(5-methyl-2-furyl)benzimidazole]
5.39	Cc1cccc(Cn2c(-c3ccc(C)o3)nc3ccc(F)cc32)c1 [Example 40b, 6-Fluoro-1-(3-methylbenzyl)-2-(5-methyl-2-furyl)benzimidazole]
2.61	Cc1ccc(-c2nc3cc(F)ccc3n2Cc2ccccc2C)o1 [Example 41a, 5-fluoro-1-(2-methylbenzyl)-2-(5-methyl-2-furyl)benzimidazole]
2.38	Cc1ccc(-c2nc3ccc(F)cc3n2Cc2ccccc2C)o1 [Example 41b, 6-fluoro-1-(2-methylbenzyl)-2-(5-methyl-2-furyl)benzimidazole]
3.55	Cc1ccc(-c2nc3ccc(Cl)cc3n2Cc2ccccc2)o1 [Example 42a, 1-benzyl-6-chloro-2-(5-methyl-2-furyl)benzimidazole]
4.43	Cc1ccc(-c2nc3cc(Cl)ccc3n2Cc2ccccc2)o1 [Example 42b, 1-benzyl-5-chloro-2-(5-methyl-2-furyl)benzimidazole]
9.74	Cc1ccc(-c2nc3cc(Cl)ccc3n2Cc2cccc(Cl)c2)o1 [Example 44a, 5-chloro-1-(3-chlorobenzyl)-2-(5-methyl-2-furyl)benzimidazole]
3.1	Cc1ccc(-c2nc3ccc(Cl)cc3n2Cc2cccc(Cl)c2)o1 [Example 44b, 6-chloro-1-(3-chlorobenzyl)-2-(5-methyl-2-furyl)benzimidazole]
7.52	Cc1ccc(-c2nc3ccc(Cl)cc3n2Cc2ccccc2Cl)o1 [Example 45b, 6-chloro-1-(2-chlorobenzyl)-2-(5-methyl-2-furyl)benzimidazole]
3.13	Cc1ccc(-c2nc3ccc(Cl)cc3n2Cc2ccc(F)cc2)o1 [Example 46a, 6-chloro-1-(4-fluorobenzyl)-2-(5-methyl-2-furyl)benzimidazole]
9.59	Cc1ccc(-c2nc3cc(Cl)ccc3n2Cc2ccc(F)cc2)o1 [Example 46b, 5chloro-1-(4-fluorobenzyl)-2-(5-methyl-2-furyl)benzimidazole]
5.55	Cc1ccc(-c2nc3cc(Cl)ccc3n2Cc2cccc(F)c2)o1 [Example 47a, 5-chloro-1-(3-fluorobenzyl)-2-(5-methyl-2-furyl)benzimidazole]
4.42	Cc1ccc(-c2nc3ccc(Cl)cc3n2Cc2cccc(F)c2)o1 [Example 47b, 6-chloro-1-(3-fluorobenzyl)-2-(5-methyl-2-furyl)benzimidazole]
